Data reported in the supplement of paper PMC4862054.
“And” between values parts separate entries of the source, which are not always exact repeats. Identical values can stand only once.

Assays:
CAL-148 [1] = test: normalised viability (% of control), CellTiter-Blue; higher = more viable cells (about 100 = DMSO control); settings: incubation time: 72 h
Description: (§1)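 DSRT, CellTiter-Blue viability, 72 h incubation. Signal is normalised to DMSO and benzethonium chloride controls. Value is the normalised response at dose 7.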

CAL-51 [2] = test: as above; settings: incubation time: 72 h
Description: as §1

CAL-85-1 [3] = test: as above; settings: incubation time: 72 h
Description: as §1

DU-4475 [4] = test: as above; settings: incubation time: 72 h
Description: as §1

HDQ-P1 [5] = test: as above; settings: incubation time: 72 h
Description: as §1

MDA-MB-453 [6] = test: as above; settings: incubation time: 72 h
Description: as §1

HDQ-P1 [7] = settings: 72 h
Procedure, shortened: (§2)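 After 72 h on 384-well plates pre-loaded with compound in 5 µl medium, breast cancer cell lines seeded in 20 µl were assayed for viability with 2.5 µl CellTiter-Blue at 37 °C for 2 h, read at 560/590 nm. Each plate was quality-checked by Z'-factor and normalised to vehicle and a positive kill control. EC50 comes from the fitted percent-inhibition dose-response curve, censored at the top concentration, and rows scoring zero for drug sensitivity were left out.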

MDA-MB-453 [8] = settings: 72 h
Procedure, shortened: as §2

BT-549 = settings: 72 h
Procedure, shortened: as §2

MDA-MB-436 [9] = settings: 72 h
Procedure, shortened: as §2

MFM-223 [10] = settings: 72 h
Procedure, shortened: as §2

CAL-85-1 [11] = settings: 72 h
Description: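 Drug sensitivity and resistance testing (DSRT) of breast cancer cell lines in 384-well plates, 5 concentrations in 10-fold dilutions over a compound-specific 10,000-fold range. After 72 h, cytotoxicity was read by CellTox Green fluorescence and viability by CellTiter-Glo luminescence (multiplexed), normalised to DMSO and benzethonium chloride controls. EC50 is the inflection point of the fitted dose-response curve (bottom asymptote free, so it can be relative for partial curves) and is censored at the highest tested concentration. Rows with DSS 0 (no meaningful response) were excluded.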

CAL-85-1 [12] = settings: 72 h; remark: listed apart in the source
Procedure, shortened: as §2

CAL-148 [13] = test: normalised response (% of control), CellTiter-Glo; higher = more viable cells (100 = DMSO, 0 = benzethonium chloride kill control); settings: incubation time: 72 h
Procedure, shortened: (§3)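 In 384-well plates holding compound at 5 concentrations in 10-fold steps over a 10,000-fold range specific to each compound, breast cancer cell lines were seeded as 20 µl suspension and incubated 72 h. CellTox Green fluorescence was measured at 485/520 nm, after which CellTiter-Glo luminescence was measured following 10 min at room temperature. Plate signals were normalised to 0.1 % DMSO (100) and a positive kill control (0), and each value is the normalised signal at a single concentration.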

CAL-51 [14] = test: as above; settings: incubation time: 72 h
Procedure, shortened: as §3

DU-4475 [15] = test: as above; settings: incubation time: 72 h
Procedure, shortened: as §3

HCC1599 = test: as above; settings: incubation time: 72 h
Procedure, shortened: as §3

HDQ-P1 [16] = test: as above; settings: incubation time: 72 h
Procedure, shortened: as §3

MCF-10A = test: as above; settings: incubation time: 72 h
Procedure, shortened: as §3

MDA-MB-231 = test: as above; settings: incubation time: 72 h
Procedure, shortened: as §3

MDA-MB-436 [17] = test: as above; settings: incubation time: 72 h
Procedure, shortened: as §3

MDA-MB-453 [18] = test: as above; settings: incubation time: 72 h
Procedure, shortened: as §3

MDA-MB-468 = test: as above; settings: incubation time: 72 h
Procedure, shortened: as §3

MFM-223 [19] = test: as above; settings: incubation time: 72 h
Procedure, shortened: as §3

SMILES | normalised viability (CAL-148 [1]) | normalised viability (CAL-51 [2]) | normalised viability (CAL-85-1 [3]) | normalised viability (DU-4475 [4]) | normalised viability (HDQ-P1 [5]) | normalised viability (MDA-MB-453 [6]) | also measured
O=C1c2c(O)ccc(O)c2C(=O)c2c(NCCNCCO)ccc(NCCNCCO)c21 [Mitoxantrone] (100 nM) | 25.1% | 31.2% | 63.4% | 13% | 74.2% | 71.3% | –
Nc1ccccc1NC(=O)c1ccc(CNc2nccc(-c3cccnc3)n2)cc1 [Mocetinostat] (1000 nM) | 65.5% | 77.8% | 68.7% | 39.2% | 90.1% | 41.6% | –
COc1nc(N)nc2c1ncn2[C@@H]1O[C@H](CO)[C@@H](O)[C@@H]1O [Nelarabine] (1000 nM) | 102% and 122% | 96.7% and 110% | 101% and 98.4% | 103% and 110% | 76.9% and 92.7% | 101% and 89.3% | –
Cc1ccc(Nc2nccc(N(C)c3ccc4c(C)n(C)nc4c3)n2)cc1S(N)(=O)=O [Pazopanib] | – | – | – | – | – | – | EC50, CellTiter-Blue viability (HDQ-P1 [7]): > 10000 nM; EC50, CellTiter-Blue viability (MDA-MB-453 [8]): 608 nM; EC50, CellTiter-Blue viability (BT-549): 8260 nM; EC50, CellTiter-Blue viability (MDA-MB-436 [9]): 107 nM; EC50, CellTiter-Blue viability (MFM-223 [10]): 34.6 nM; EC50, CellTox Green (CAL-85-1 [11]): > 10000 nM
Cc1ccc(Nc2nccc(N(C)c3ccc4c(C)n(C)nc4c3)n2)cc1S(N)(=O)=O [Pazopanib] (1000 nM) | 85.6% | 84.2% | 87.6% | 107% | 99.8% | 68.8% | –
CS(=O)(=O)N1CCN(Cc2cc3nc(-c4cccc5[nH]ncc45)nc(N4CCOCC4)c3s2)CC1 [Pictilisib] | – | – | – | – | – | – | EC50, CellTox Green (CAL-85-1 [11]): 2150 nM
O=C(NC[C@H](O)CO)c1ccncc1Nc1ccc(I)cc1F [Pimasertib] | – | – | – | – | – | – | EC50, CellTox Green (CAL-85-1 [11]): 1340 nM
O=C(CCBr)N1CCN(C(=O)CCBr)CC1 [Pipobroman] | – | – | – | – | – | – | EC50, CellTiter-Blue viability (MDA-MB-453 [8]): 6140 nM; EC50, CellTiter-Blue viability (MFM-223 [10]): 6190 nM
O=C(CCBr)N1CCN(C(=O)CCBr)CC1 [Pipobroman] (1000 nM) | 95.5% | 114% | 88.8% | 98.1% | 91.2% | 93.4% | –
C[C@]12C=CC(=O)C=C1CC[C@@H]1[C@@H]2[C@@H](O)C[C@@]2(C)[C@H]1CC[C@]2(O)C(=O)CO [Prednisolone] | – | – | – | – | – | – | EC50, CellTiter-Blue viability (MDA-MB-453 [8]): 171 nM
C[C@]12C=CC(=O)C=C1CC[C@@H]1[C@@H]2[C@@H](O)C[C@@]2(C)[C@H]1CC[C@]2(O)C(=O)CO [Prednisolone] (1000 nM) | 109% | 90.3% | 101% | 119% | 113% | 76.9% | –
Cn1cc(CNCC2CCN(c3ncc(C(=O)NO)cn3)CC2)c2ccccc21 [Quisinostat] | – | – | – | – | – | – | EC50, CellTox Green (CAL-85-1 [11]): 18.5 nM
CNC(=O)c1cc(Oc2ccc(NC(=O)Nc3ccc(Cl)c(C(F)(F)F)c3)cc2)ccn1 [Sorafenib] | – | – | – | – | – | – | EC50, CellTiter-Blue viability (CAL-85-1 [12]): 159 nM; EC50, CellTiter-Blue viability (BT-549): 27.1 nM; EC50, CellTiter-Blue viability (MFM-223 [10]): 952 nM
CNC(=O)c1cc(Oc2ccc(NC(=O)Nc3ccc(Cl)c(C(F)(F)F)c3)cc2)ccn1 [Sorafenib] (100 nM) | 108% | 106% | 90.1% and 102% | 94.2% and 117% | 102% and 77.9% | 90.8% and 101% | –
CCN(CC)CCNC(=O)c1c(C)[nH]c(/C=C2\C(=O)Nc3ccc(F)cc32)c1C [Sunitinib] | – | – | – | – | – | – | EC50, CellTiter-Blue viability (HDQ-P1 [7]): 721 nM
CCN(CC)CCNC(=O)c1c(C)[nH]c(/C=C2\C(=O)Nc3ccc(F)cc32)c1C [Sunitinib] (100 nM) | 94.3% and 116% | 115% and 98.3% | 93.3% and 99.1% | 109% and 86.6% | 91.3% and 100% | 94% and 94.8% | –
CCN(CC)CCNC(=O)c1c(C)[nH]c(/C=C2\C(=O)Nc3ccc(F)cc32)c1C [Sunitinib] (1000 nM) | – | – | – | – | – | – | normalised response (CAL-148 [13]): 113%; normalised response (CAL-51 [14]): 109%; normalised response (DU-4475 [15]): 94.2%; normalised response (HCC1599): 105%; normalised response (HDQ-P1 [16]): 86.1%; normalised response (MCF-10A): 66.3%; normalised response (MDA-MB-231): 102%; normalised response (MDA-MB-436 [17]): 93.7%; normalised response (MDA-MB-453 [18]): 97.3%; normalised response (MDA-MB-468): 107%; normalised response (MFM-223 [19]): 81.8%
CC[C@@]1(O)C(=O)OCc2c1cc1n(c2=O)Cc2cc3c(CN(C)C)c(O)ccc3nc2-1 [Topotecan] (100 nM) | 45.5% | 73.3% | 85.7% | 61.2% | 102% | 90.4% | –
